Like-named read-outs stand apart in the source and are kept apart here.
System: BTK signaling in Ramos cells
Test: BTK Ramos cellular assay (phosphorylation of BTK substrate PLCγ2)
Type: cell-based, human
Conditions: 1 hour compound, anti-IgM stimulation, read-out: BTK Inhibition (Ramos cellular)
Procedure: Compounds I-2, I-4, and I-7 were assayed in Ramos human Burkitt lymphoma cells. Ramos cells were grown in suspension in T225 flasks, spun down, resuspended in 50 ml serum-free media and incubated for 1 hour. Compound was added to Ramos cells in serum free media to a final concentration of 1, 0.1, 0.01, or 0.001 μM. Ramos cells were incubated with compound for 1 hour, washed again and resuspended in 100 ul serum-free media. Cells were then stimulated with 1 μg of goat F(ab′)2 Anti-Human IgM and incubated on ice for 10 minutes to activate B cell receptor signaling pathways. After 10 minutes, the cells were washed once with PBS and then lysed on ice with Invitrogen Cell Extraction buffer. 16 μg total protein from lysates were loaded on gel and blots were probed for phosphorylation of the BTK substrate PLCγ2.

| Structure (SMILES) | IC50 (Homo sapiens) | IC50 |
| --- | --- | --- |
| C=CC(=O)N1CCOc2ccc(Nc3nc(Nc4ccc5cn[nH]c5c4)ncc3C(C)=O)cc21 [Compound I-153, 1-{6-[5-Acetyl-2-(1H-indazol-6-ylamino)-pyrimidin-4-ylamino]-2,3-dihydro-benzo[1,4]oxazin-4-yl}-propenone] | – | < 10 nM |
| C=CC(=O)Nc1cccc(Oc2nc(Nc3ccc(OC)nc3)ncc2C(=O)Nc2ccccc2)c1 [Compound I-159, 4-(3-acrylamidophenoxy)-2-(6-methoxypyridin-3-ylamino)-pyrimidine-5-carboxylic acid phenylamide] | 100 to 1000 nM | – |
| C=CC(=O)Nc1cccc(Nc2nc(Nc3cccc(S(N)(=O)=O)c3)ncc2F)c1 [Compound I-160, N-(3-(5-fluoro-2-(3-sulfamoylphenylamino)pyrimidin-4-ylamino)phenyl)acrylamide] | 10 to 100 nM | – |
| C=CC(=O)N1Cc2ccc(Nc3nc(Nc4ccc(OC)nc4)ncc3F)cc2C1 [Compound I-165, 1-(5-(5-fluoro-2-(6-methoxypyridin-3-ylamino)pyrimidin-4-ylamino)isoindolin-2-yl)prop-2-en-1-one] | 10 to 100 nM | – |
| C=CC(=O)N1CCc2ccc(Nc3nc(Nc4ccc(OC)nc4)ncc3F)cc21 [Compound I-166, 1-(6-(5-fluoro-2-(6-methoxypyridin-3-ylamino)pyrimidin-4-ylamino)indolin-1-yl)prop-2-en-1-one] | 10 to 100 nM | – |
| C=CC(=O)Nc1cccc(Nc2nc(Nc3ccc(OC)nc3)ncc2C2CC2)c1 [Compound I-167, N-(3-(5-cyclopropyl-2-(6-methoxypyridin-3-ylamino)pyrimidin-4-ylamino)phenyl)acrylamide] | 10 to 100 nM | – |
| C=CC(=O)N1CCOc2ccc(Nc3nc(Nc4ccc(N5CCOCC5)nc4)ncc3C(C)=O)cc21 [Compound I-168, 1-{6-[5-Acetyl-2-(6-morpholin-4-yl-pyridin-3-ylamino)-pyrimidin-4-ylamino]-2,3-dihydro-benzo[1,4]oxazin-4-yl}-propenone] | 10 to 100 nM | – |

Further lines, with some results ahead:

| IC50 (Homo sapiens) | Structure (SMILES) | IC50 |
| --- | --- | --- |
| < 10 nM | C=CC(=O)Nc1cccc(Nc2nc(Nc3ccc4c(c3)N(C(=O)C(F)(F)F)CCO4)ncc2F)c1 [Compound I-143, N-(3-(2-(4-trifluoroacetyl-2,3-dihydrobenzo[1,4]oxazin-6-yl)amino-5-fluoropyrimidin-4-ylamino)phenyl)acrylamide] | – |
| 10 to 100 nM | C=CC(=O)N1CCC[C@@H](Nc2nc(Nc3cccc(Cl)c3)ncc2F)C1 [Compound I-147, (R)-1-(3-(2-(3-chlorophenylamino)-5-fluoropyrimidin-4-ylamino)piperidin-1-yl)prop-2-en-1-one] | – |
| 10 to 100 nM | C=CC(=O)N1CCOc2ccc(Nc3nc(Nc4ccc(OCCOC)cc4)ncc3C(C)=O)cc21 [Compound I-150, 1-(6-{5-Acetyl-2-[4-(2-methoxy-ethoxy)-phenylamino]-pyrimidin-4-ylamino}-2,3-dihydro-benzo[1,4]oxazin-4-yl)-propenone] | – |
| < 10 nM | C=CC(=O)Nc1cccc(Nc2nc(Nc3ccc4c(cnn4C(=O)OC(C)(C)C)c3)ncc2F)c1 [Compound I-151] | – |
| 10 to 100 nM | C=CC(=O)N1CCOc2ccc(Nc3nc(Nc4ccc(N5CCCC5=O)cc4)ncc3C(C)=O)cc21 [Compound I-152, 1-{4-[5-Acetyl-4-(4-acryloyl-3,4-dihydro-2H-benzo[1,4]oxazin-6-ylamino)-pyrimidin-2-ylamino]-phenyl}-pyrrolidin-2-one] | – |
| < 10 nM | C=CC(=O)Nc1cccc(Nc2nc(Nc3ccc4[nH]ncc4c3)ncc2F)c1 [Compound I-156] | – |
| < 10 nM | C=CC(=O)Nc1cccc(Nc2nc(Nc3ccccc3)ncc2C#N)c1 [Compound I-157, N-(3-(5-cyano-2-(phenylamino)pyrimidin-4-ylamino)phenyl)acrylamide] | – |
| 10 to 100 nM | C=CC(=O)Nc1cccc(Nc2nc(Nc3cccc(OC)c3)ncc2OC)c1 [Compound I-158, N-(3-(5-methoxy-2-(3-methoxyphenylamino)pyrimidin-4-ylamino)phenyl)acrylamide] | – |

From US11351168B1 (Celgene CAR LLC, priority 2008, dated 2022)
